Results: patent US20020022586A1, “Method for treating a patient with neoplasia by treatment with a pyrimidine analog” (priority 1998, published 2002)
Read-outs that look alike come from different tables or passages of the source. Blank lines part the entries; values can stand above or below the compound they belong to.

Experiments:
HT-29 cells [1] = experiment: HT-29 tumor cell growth inhibition, SRB assay; format: cell-based, human; design: Growth Inhibition: key to the marks not given beside the values; settings: for Growth inhibitory activity, % Inhibition at 100 μM / inhibition at 100 µM: 100 μM single dose; for IC50 / inhibition at 100 µM: Homo sapiens; for IC50: SRB assay; for inhibition at 100 µM: HT-29, read-out: Growth inhibitory activity, % Inhibition at 100 μM
COX = COX inhibition; format: biochemical
[2] = tested on: PDE peak B (novel cGMP-specific PDE); experiment: cGMP hydrolysis by PDE peak B isolated from SW-480 cells; format: biochemical, human; settings: 0.25 μM 3H-cGMP
HT-29 cells [3] = experiment: Apoptosis by DNA fragmentation assay in HT-29 cells; format: cell-based, human
cGMP-PDE = tested on: T1, cGMP-PDE; experiment: cGMP-PDE inhibition assay, enzyme from HT-29 tumor cells; format: biochemical, human; settings: 100 μM
T1 construct: other: 10 μM; other: 100 μM; other: enzyme from HT-29 cells; other: 20 μM

PDE peak A (PDE5) = target: T2, PDE peak A (PDE5) (Homo sapiens, UniProt O76074); experiment: cGMP hydrolysis by PDE peak A isolated from SW-480 cells; format: biochemical
T2 construct: SW-480 cells are collected and homogenized; endogenous in cells; host or cells: SW-480 human colon adenocarcinoma cells; supernatant of homogenate fractionated on DEAE-Trisacryl M

HCT-15 = experiment: Growth inhibition of various cell lines (Table 5); format: cell-based; settings: Homo sapiens
Procedure: (§1) To show the effectiveness of cGMP-specific PDE inhibition on various forms of neoplasia, compounds were tested on numerous cell lines. […] The IC50 values were determined by the SRB assay. […] Therefore, compounds selected for cGMP-specific PDE inhibition in combination with a pyrimidine analog should be useful for treating neoplasia, in particular breast, colorectal and pancreatic cancers.

DU-145 = experiment: Growth inhibition of various cell lines (Table 5); format: cell-based; settings: Homo sapiens
Procedure: as §1

MDA-MB-435 = experiment: Growth inhibition of various cell lines (Table 5); format: cell-based; settings: Homo sapiens
Procedure: as §1

HT-29, Colon = experiment: Growth inhibition of various cell lines (Table 5); format: cell-based; settings: Homo sapiens
[4] = tested on: premalignant lesions in mouse mammary gland organ culture; experiment: Mammary gland organ culture model; format: cell-based; settings: for Mammary Gland Organ Culture: activity profile; for inhibition of premalignant lesions: mammary gland organ culture; as to mammary gland organ culture: key: −: Not active; +: Slightly active; ++: Moderately active; +++: Strongly active; ++++: Highly active
Procedure: For example, female BALB/c mice can be treated with a combination of estradiol and progesterone daily, in order to prime the glands to be responsive to hormones in vitro. The animals are sacrificed and thoracic mammary glands are excised aseptically and incubated for ten days in growth media supplemented with insulin, prolactin, hydrocortisone, and aldosterone. DMBA (7,12-dimethylbenz(a)anthracene) is added to medium to induce the formation of premalignant lesions. Fully developed glands are then deprived of prolactin, hydrocortisone, and aldosterone, resulting in the regression of the glands but not the premalignant lesions.
The test compound is dissolved in DMSO and added to the culture media for the duration of the culture period. At the end of the culture period, the glands are fixed in 10% formalin, stained with alum carmine, and mounted on glass slides. The extent of the area occupied by the mammary lesions can be quantitated by projecting an image of the gland onto a digitation pad. The area covered by the gland is traced on the pad and considered as 100% of the area. The space covered by each of the unregressed structures is also outlined on the digitization pad and quantitated by the computer.
The incidence of forming mammary lesions is the ratio of the glands with mammary lesions to […]. The incidence of mammary lesions in test compound treated glands is compared with that of the untreated glands.
Mammary gland organ culture experiments were performed as previously described (Mehta and Moon, Cancer Research, 46: 5832-5835, 1986). […] The data support the hypothesis that cyclooxygenase inhibition is not necessary for the anti-neoplastic properties of desired compounds.

[5] = Side effects of exisulind on administration; format: in vivo
From the text: This effect is reversible, and liver enzymes return to normal levels when the administered dose of exisulind returns to the traditionally recommended level or when treatment is discontinued. The most serious side effect of pyrimidine analogs, on the other hand, is bone marrow suppression.

[6] = tested on: Human Prostate Carcinoma PC3; experiment: Growth inhibition of various cell lines (Table 5); format: cell-based
Procedure: as §1

A-427, Lung = experiment: Growth inhibition of various cell lines (Table 5); format: cell-based; settings: Homo sapiens
Procedure: as §1

HT-29 cells [7] = experiment: Apoptosis and necrosis by morphology (acridine orange/ethidium bromide) in HT-29 cells; format: cell-based, human
From the text: Following treatment with a test compound, cultures can be assayed for apoptosis and necrosis by fluorescent microscopy following labeling with acridine orange and ethidium bromide. The method for measuring apoptotic cell number has previously been described by Duke & Cohen, “Morphological And Biochemical Assays Of Apoptosis,” Current Protocols In Immunology, Coligan et al., eds., 3.17.1-3.17.16 (1992, which is incorporated herein by reference).
For example, floating and attached cells can be collected, and aliquots of cells can be centrifuged. The cell pellet can then be resuspended in media and a dye mixture containing acridine orange and ethidium bromide. The mixture can then be examined microscopically for morphological features of apoptosis.
Reference compounds and test compounds were analyzed for their cGMP-specific PDE inhibitory activity in accordance with the protocols for the assay, supra. […] Apoptotic and necrotic cell death was determined as previously described (Duke and Cohen, In: Current Protocols in Immunology, 3.17.1-3.17.16, New York, John Wiley and Sons, 1992). […] All data were collected from the same experiment.
The apoptosis inducing activity for a series of phosphodiesterase inhibitors was determined. HT-29 cell were treated for 6 days with various inhibitors of phosphodiesterase. Apoptosis and necrosis were determined morphologically after acridine orange and ethidium bromide labeling in accordance with the assay described, supra.

HT-29 cells [8] = experiment: cAMP levels in cultured HT-29 cells by radioimmunoassay; format: cell-based, human; settings: HT-29 cells treated 30 minutes
From the text: It has been observed that a compound which is useful in the practice of this invention (i.e., one that selectively induces apoptosis in neoplastic cells, but not substantially in normal cells) follows a time course consistent with cGMP-specific PDE inhibition. […] The intracellular targets of these drug actions are being studied further, but current data support the concept that the initial rise in cGMP content and the subsequent fall in cAMP content precede apoptosis in neoplastic cells exposed to test compounds useful in this invention. To determine the cyclic AMP content in cell extracts, radioimmunoassay techniques similar to those described above for cGMP are used.

HT-29 cells [9] = experiment: cGMP levels in cultured HT-29 cells by radioimmunoassay; format: cell-based, human; settings: HT-29 cells treated 30 minutes
MCF7/S, Breast = experiment: Growth inhibition of various cell lines (Table 5); format: cell-based; settings: Homo sapiens, MCF7S
Procedure: as §1

HT-29 cells [10] = experiment: HT-29 growth inhibition by counting viable cells after trypan blue staining; format: cell-based, human; settings: 120 μM, time course
Procedure: Growth inhibition (FIG. 9A, top) was measured by counting viable cells after trypan blue staining. Apoptosis (FIG. 9B, bottom) was measured by morphological determination following staining with acridine orange and ethidium bromide as described previously (Duke and Cohen, In: Current Protocols in Immunology, 3.17.1-3.17.16, New York, John Wiley and Sons, 1992). […] All data were collected from the same experiment.

[11] = cGMP hydrolysis, 0.25 μM 3H-cGMP
[12] = 144 h, HT-29, 6 days, PDE inhibitors, read-out: Growth inhibition (IC50)

Compound: CC(=O)NC(CSC12CC(=O)OC1(C)/C(=C/c1ccc(S(C)(=O)=O)cc1)c1ccc(F)cc12)C(=O)O (racemic) [D, rac-(E)-1-(butan-1′,4′-olido)-[3′,4′:1,2]-6-fluoro-2-methyl-3-(p-methylsulfonylbenzylidene)-1S-indanyl-N-acetylcysteine]
Growth inhibitory activity, % Inhibition at 100 μM (HT-29 cells [1]): 78% | COX Inhibition (COX; activity profile): −

Compound: CCCCCC[C@@H]([C@@H](C)O)n1cnc2c(N)ncnc21 (racemic) [EHNA, reference compound]
IC50 [2]: 3.7 µM | Apoptosis inducing activity, Fold induction at 100 μM (HT-29 cells [3]): <2.0 fold

Compound: CC1=C(CC(=O)O)c2cc(F)ccc2/C1=C\c1ccc(Cl)cc1 [C, (Z)-5-Fluoro-2-methyl-1-(p-chlorobenzylidene)-3-acetic acid]
Growth inhibitory activity, % Inhibition at 100 μM (HT-29 cells [1]): 80% | cGMP PDE % Inhibition at 100 μM (cGMP-PDE): <25%

Compound: O=C([O-])C1CCN(c2nc(NCc3ccc4c(c3)OCO4)c3cc(Cl)ccc3n2)CC1.[Na+] [Compound E4021, reference compound]
Growth inhibitory activity, % Inhibition at 100 μM (HT-29 cells [1]): <50%

IC50 [2]: 0.37 µM | EC50 (HT-29 cells [3]; Homo sapiens, HT-29, 48 hours, DNA fragmentation, read-out: EC50 for apoptosis induction): 0.05 µM | IC50 (PDE peak A (PDE5); [11]): 0.38 µM | IC50 (HT-29 cells [1]; HT-29, 144 h, six days, read-out: IC50 for growth inhibition of HT-29 cells): 0.04 µM | IC50 (HCT-15): 0.6 µM | IC50 (DU-145): 0.1 µM | IC50 (MDA-MB-435): 0.04 µM | IC50 (HT-29, Colon): 0.1 µM
Compound: COc1cc(/C=C2/C(C)=C(CC(=O)NCc3ccccc3)c3cc(F)ccc32)cc(OC)c1OC [Compound E, (Z)-5-Fluoro-2-methyl-1-(3,4,5-trimethoxybenzylidene)-3-indenylacetamide, N-benzyl]
inhibition at 100 µM (HT-29 cells [1]): 62% | Growth Inhibition (HT-29 cells [1]; activity profile): ++++ | COX Inhibition (COX; 100 μM): did not inhibit COX | COX Inhibition (COX; activity profile): − | cGMP PDE % Inhibition at 100 μM (cGMP-PDE): 75% | Mammary Gland Organ Culture [4]: ++++

IC50 [6]: 82 µM | IC50 (HT-29, Colon): 120 µM
Compound: CC1=C(CC(=O)O)c2cc(F)ccc2/C1=C\c1ccc(S(C)(=O)=O)cc1 [Exisulind, (Z)-5-fluoro-2-methyl-1-[[4-(methylsulfonyl)phenyl]methylene]indene-3-yl acetic acid]
side effects at recommended dose ([5]; 300-400 mg/day): no significant side effects | liver enzymes at doses higher than recommended ([5]; doses higher than the recommended therapeutic levels, reversible): elevated levels of liver enzymes | IC50 (A-427, Lung): 130 µM | COX Inhibition (COX; activity profile): − | inhibition of premalignant lesions [4]: effectively inhibit the formation of premalignant lesions

Compound: CC1=C(CC(=O)N(C2CCCCC2)C2CCCCC2)c2cc(F)ccc2/C1=C\c1ccc(S(C)(=O)=O)cc1 [F, (Z)-5-Fluoro-2-methyl-1-(p-methylsulfonylbenzylidene)-3-indenylacetamide, N,N′-dicyclohexyl]
COX Inhibition (COX; activity profile): −

IC50 [2]: > 100 µM | IC50 (PDE peak A (PDE5); [11]): 31 µM
Compound: CC1(C)C(=O)Nc2ccc(C3=NNC(=O)CC3)cc21 [Indolidan]

Compound: Clc1cccc(Nc2nnc(-c3ccccc3)c3ccccc23)c1 [MY5445, reference compound]
COX Inhibition (COX; activity profile): ++++

Compound: Cc1[nH]c(=O)c(C#N)cc1-c1ccncc1 [Milrinone]
IC50 (HT-29 cells [1]; [12]): > 200 µM | % Apoptosis (HT-29 cells [7]; HT-29, 6 days, morphology): 18% | % Necrosis (HT-29 cells [7]; HT-29, 6 days, morphology): 0%

Compound: COc1ccc(C2CNC(=O)C2)cc1OC1CCCC1 (stereo not shown) [Rolipram]
IC50 [2]: > 100 µM | effect on cAMP levels (HT-29 cells [8]): increased cAMP levels

Compound: CCCc1nn(C)c2c(=O)[nH]c(-c3cc(S(=O)(=O)N4CCN(C)CC4)ccc3OCC)nc12 [Sildenafil, reference compound]
inhibition at 100 µM (HT-29 cells [1]): < 50%

Compound: CSc1ccc(/C=C2/C(C)=C(CC(=O)O)c3cc(F)ccc32)cc1 [Sulindac sulfide]
IC50 (PDE peak A (PDE5)): 50 µM | increase of cGMP levels (HT-29 cells [9]): greater than 50% | IC50 (MCF7/S, Breast): 30 µM | COX Inhibition (COX; activity profile): ++++ | apoptosis by morphology (HT-29 cells [7]; 120 μM, time course): increase in apoptosis | growth inhibition, viable cell count (HT-29 cells [10]): capable of inhibiting tumor cell growth | Mammary Gland Organ Culture [4]: − | inhibition of premalignant lesions [4]: inactive

IC50 [2]: > 100 µM | IC50 (PDE peak A (PDE5); [11]): > 100 µM
Compound: CCOC(=O)C1=C[C@]2(CC)CCCN3CCc4c(n1c1ccccc41)[C@@H]32 [Vinpocetine]

IC50 (HT-29 cells [1]; [12]): > 100 µM
Compound: CCCOc1ccccc1-c1nc2nn[nH]c2c(=O)[nH]1 [Zaprinast, reference compound]
inhibition at 100 µM (HT-29 cells [1]): < 50%

Compound: CC1=C(CC(=O)O)c2cc(F)ccc2/C1=C/c1ccc([S+](C)[O-])cc1 (stereo not shown) [sulindac sulfoxide]
inhibition of premalignant lesions [4]: effectively inhibit the formation of premalignant lesions

Compound: rac-(E)-1-(butan-1′,4′-olido)-[3′,4′:1,2]-6-fluoro-2-methyl-3-(p-methylsulfonylbenzylidene)-1 S-indanyl-glutathione)
COX Inhibition (COX; activity profile): −

Compound: rac-threo-(E)-1-(N,N′-diethylaminoethanethio)-1-(butan-1′,4′-olido)-[3′,4′:1,2′]-6-fluoro-2-methyl-3-(p-methylsulfonylbenzylidene)-indan
Apoptosis inducing activity, Fold induction at 100 μM (HT-29 cells [3]): <2.0 fold | Growth inhibitory activity, % Inhibition at 100 μM (HT-29 cells [1]): 68% | COX Inhibition (COX; activity profile): − | cGMP PDE % Inhibition at 100 μM (cGMP-PDE): <25% | Mammary Gland Organ Culture [4]: ++

Compound: ribo-(E)-1-Triazolo-[2′,3′:1″,3″]-1-(butan-1′,4′-olido)-[3′,4′:1,2]-6-fluoro-2-methyl-3-(p-methylsulfonylbenzylidene)-indan [G]
COX Inhibition (COX; activity profile): −
